Data on 17 molecules can be found in patent publication US20240398805A1, “QUINAZOLINE DERIVED COMPOUNDS AS EGFR INHIBITORS AND THEIR USES THEREOF” (ACCUTAR BIOTECHNOLOGY INC., priority 2021, published 2024).

Holding throughout (type): cell-based
For one assay, the system named is A431 cells. The assay is described as follows: Cell growth inhibition (CellTiter-Glo, 3 days) in A431. The settings on record: Homo sapiens, A-431, 72 h, 3 days after administration. In short, it runs like this:
(§1)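 HCC827 cells in RPMI/10% FBS and A431 cells in DMEM/10% FBS were seeded at 5000 cells/well and left overnight. Compound was then added over a concentration range for 3 days of incubation, and viability was read by CellTiter-Glo luminescence.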
On the technique in general: In ATP-based viability assays light output follows the ATP content of the culture.

Assay [1] has as its system HCC827-YVMA cells (human ERBB2 exon20 insertion mutant A775_G776ins YVMA). The assay is described as follows: Cell growth inhibition (CellTiter-Glo, 3 days) in HCC827-YVMA. Conditions: 72 h, 3 days after administration. In short, it runs like this: (§2)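 HCC827 cells lentivirally transduced with codon-optimized ASV or YVMA insertion mutants were seeded at 5000 cells/well in RPMI with 10% FBS and incubated overnight. Compound was added at various concentrations from a 10× stock in medium, with 3 days' incubation. Viability read by CellTiter-Glo luminescence.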

Assay [2] concerns HCC827-SVD cells (human EGFR exon 20 insertion mutant D770_N771 insSVD). The experiment in a line: Cell growth inhibition (CellTiter-Glo, 3 days) in HCC827-SVD. The settings on record: 72 h, 3 days after administration. An outline of the steps:
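HCC827 cells carrying lentiviral codon-optimized EGFR D770_N771 insSVD, with endogenous EGFR knocked out by CRISPR (single clone), seeded at 5000 cells/well in RPMI with 10% FBS. Viability read by CellTiter-Glo luminescence.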

The test system of the next assay is HCC827 cells. The experiment in a line: Cell growth inhibition (CellTiter-Glo, 3 days) in HCC827. The settings on record: Homo sapiens, 72 h, 3 days after administration. In short, it runs like this:
as §1

Assay [3] deals with HCC827-ASV cells (human EGFR exon 20 insertion mutant A769_D770insASV). The assay is described as follows: Cell growth inhibition (CellTiter-Glo, 3 days) in HCC827-ASV. The settings on record: 72 h, 3 days after administration. In short, it runs like this: as §2

Bounds are passed on as bounds.

`C=CC(=O)N1CCC(Nc2cc3c(Nc4ccc(Oc5ccnc(N6CCC(C)(C)C6)c5)cc4F)ncnc3cc2OC)CC1` [Example 153, 1-(4-((4-((4-((2-(3,3-dimethylpyrrolidin-1-yl)pyridin-4-yl)oxy)-2-fluorophenyl)amino)-7-methoxyquinazolin-6-yl)amino)piperidin-1-yl)prop-2-en-1-one]: the GI50 with A431 cells was 300 to 600 nM; in assay [1] it was 30 to 60 nM; in assay [2], < 30 nM; in the assay with HCC827 cells, < 30 nM; in assay [3], < 30 nM.

For the molecule `C=CC(=O)N1CCC(Nc2cc3c(Nc4ccc(Oc5nc(-c6ccnn6C)cs5)cc4F)ncnc3cc2OC)CC1` [Example 26, 1-(4-((4-((2-fluoro-4-((4-(1-methyl-1H-pyrazol-5-yl)thiazol-2-yl)oxy)phenyl)amino)-7-methoxyquinazolin-6-yl)amino)piperidin-1-yl)prop-2-en-1-one], the GI50 was in the range of 100 to 300 nM in the assay with A431 cells; 30 to 60 nM in assay [1]; 30 to 60 nM in assay [2]; 60 to 100 nM with HCC827 cells; 30 to 60 nM in assay [3].

Turning to `C=CC(=O)N1CCC(Nc2cc3c(Nc4ccc(Oc5nc(-c6nnc(C(C)C)o6)cs5)cc4F)ncnc3cc2OC)CC1` [Compound 4, 1-(4-((4-((2-fluoro-4-((4-(5-isopropyl-1,3,4-oxadiazol-2-yl)thiazol-2-yl)oxy)phenyl)amino)-7-methoxyquinazolin-6-yl)amino)piperidin-1-yl)prop-2-en-1-one], the concentration for 50% growth inhibition (GI50) in the assay with A431 cells fell in the range of 300 to 600 nM; in assay [1], 100 to 300 nM; in assay [2] it was 100 to 300 nM; with HCC827 cells, 300 to 600 nM; in assay [3], 100 to 300 nM.

With `C=CC(=O)N1CC2(CC(Nc3cc4c(Nc5ccc(Oc6ccn(-c7cnc(OC)nc7)n6)cc5F)ncnc4cc3OC)C2)C1` [Compound 84, 1-(6-((4-((2-fluoro-4-((1-(2-methoxypyrimidin-5-yl)-1H-pyrazol-3-yl)oxy)phenyl)amino)-7-methoxyquinazolin-6-yl)amino)-2-azaspiro[3.3]heptan-2-yl)prop-2-en-1-one], the GI50 (in the assay with A431 cells; in assay [1]; in assay [2]; in the assay with HCC827 cells; in assay [3]) was ≥ 1000 nM each time.

For the molecule `C=CC(=O)N1CCC(Oc2cc3c(Nc4ccc(Oc5ccnc(N6C[C@H](OC)[C@H](OC)C6)c5)cc4F)ncnc3cc2OC)CC1` [Example 163, 1-(4-((4-((4-((2-((3R,4S)-3,4-dimethoxypyrrolidin-1-yl)pyridin-4-yl)oxy)-2-fluorophenyl)amino)-7-methoxyquinazolin-6-yl)oxy)piperidin-1-yl)prop-2-en-1-one], the concentration for 50% growth inhibition (GI50) with A431 cells is ≥ 1000 nM; in assay [1], 100 to 300 nM; in assay [2], 30 to 60 nM; in the assay on HCC827 cells, ≥ 1000 nM; in assay [3], 30 to 60 nM.

For the molecule `C=CC(=O)N1CCC(Nc2cc3c(Nc4ccc(Oc5nc(-c6ccc(OC)nn6)cs5)cc4F)ncnc3cc2OC)CC1` [Example 56, 1-(4-((4-((2-fluoro-4-((4-(6-methoxypyridazin-3-yl)thiazol-2-yl)oxy)phenyl)amino)-7-methoxyquinazolin-6-yl)amino)piperidin-1-yl)prop-2-en-1-one], the concentration for 50% growth inhibition (GI50) is < 30 nM in the assay on A431 cells; < 30 nM in assay [1]; < 30 nM in assay [2]; 30 to 60 nM in the assay with HCC827 cells; < 30 nM in assay [3].

With `C=CC(=O)N1CCC(Nc2cc3c(Nc4ccc(Oc5ccnc(N6CCC(O)CC6)c5)c(Cl)c4)ncnc3cc2OC)CC1` [Example 229, 1-(4-((4-((3-chloro-4-((2-(4-hydroxypiperidin-1-yl)pyridin-4-yl)oxy)phenyl)amino)-7-methoxyquinazolin-6-yl)amino)piperidin-1-yl)prop-2-en-1-one], the concentration for 50% growth inhibition (GI50) fell in the range of 300 to 600 nM with A431 cells; 100 to 300 nM in assay [1]; 60 to 100 nM in assay [2]; 100 to 300 nM in the assay on HCC827 cells; 100 to 300 nM in assay [3].

In the case of `C=CC(=O)N1CCC(Nc2cc3c(Nc4ccc(Oc5ccn(-c6ccc(C)cn6)n5)cc4F)ncnc3cc2OC)CC1` [Compound 14], the concentration for 50% growth inhibition (GI50) was in the range of 60 to 100 nM with A431 cells; 60 to 100 nM in assay [1]; 100 to 300 nM in assay [2]; 60 to 100 nM with HCC827 cells; 100 to 300 nM in assay [3].

Turning to `C=CC(=O)N1CCC(Nc2cc3c(Nc4ccc(Oc5ccnc(N6CCN(C)[C@@H](C)C6)c5)cc4F)ncnc3cc2OC)CC1` [Example 179, (S)-1-(4-((4-((4-((2-(3,4-dimethylpiperazin-1-yl)pyridin-4-yl)oxy)-2-fluorophenyl)amino)-7-methoxyquinazolin-6-yl)amino)piperidin-1-yl)prop-2-en-1-one], the GI50 in the assay with A431 cells is ≥ 1000 nM; in assay [1], 30 to 60 nM; in assay [2], 60 to 100 nM; in the assay on HCC827 cells it was ≥ 1000 nM; in assay [3] it was < 30 nM.

Take `C=CC(=O)N1CCC(Nc2cc3c(Nc4ccc(Oc5ccn(-c6ccc(OC)nn6)n5)cc4F)ncnc3cc2OC)CC1` [Example 50, 1-(4-((4-((2-fluoro-4-((1-(6-methoxypyridazin-3-yl)-1H-pyrazol-3-yl)oxy)phenyl)amino)-7-methoxyquinazolin-6-yl)amino)piperidin-1-yl)prop-2-en-1-one]: the GI50 in the assay with A431 cells is 100 to 300 nM; in assay [1], 30 to 60 nM; in assay [2] it was 30 to 60 nM; in the assay on HCC827 cells it was 60 to 100 nM; in assay [3], 30 to 60 nM.

As for `C=CC(=O)N1CCC(Nc2cc3c(Nc4ccc(Oc5ccn6ncnc6c5)c(Cl)c4)ncnc3cc2OC)CC1` [Compound 7, 1-(4-((4-((4-([1,2,4]triazolo[1,5-a]pyridin-7-yloxy)-3-chlorophenyl)amino)-7-methoxyquinazolin-6-yl)amino)piperidin-1-yl)prop-2-en-1-one], the GI50 (with A431 cells; in assay [1]; in assay [2]; with HCC827 cells; in assay [3]) was < 30 nM each time.

With `C=CC(=O)N1CCC(Nc2cc3c(Nc4ccc(Oc5ccnc(N6CCC(F)(F)C6)c5)cc4F)ncnc3cc2OC)CC1` [Example 194, 1-(4-((4-((4-((2-(3,3-difluoropyrrolidin-1-yl)pyridin-4-yl)oxy)-2-fluorophenyl)amino)-7-methoxyquinazolin-6-yl)amino)piperidin-1-yl)prop-2-en-1-one], the GI50 with A431 cells is 300 to 600 nM; in assay [1], < 30 nM; in assay [2] it was < 30 nM; in the assay with HCC827 cells it was 60 to 100 nM; in assay [3], < 30 nM.

Consider `C=CC(=O)N1CCC(Nc2cc3c(Nc4ccc(Oc5cc(-c6nc(C)no6)ccn5)cc4F)ncnc3cc2OC)CC1` [Compound 44, 1-(4-((4-((2-fluoro-4-((4-(3-methyl-1,2,4-oxadiazol-5-yl)pyridin-2-yl)oxy)phenyl)amino)-7-methoxyquinazolin-6-yl)amino)piperidin-1-yl)prop-2-en-1-one], for which the 50% growth inhibitory concentration (GI50) is 100 to 300 nM with A431 cells; < 30 nM in assay [1]; 30 to 60 nM in assay [2]; 30 to 60 nM in the assay with HCC827 cells; 30 to 60 nM in assay [3].

With `C=CC(=O)N1CCC(Nc2cc3c(Nc4ccc(Oc5ccnc(N6CCCC(C)(O)C6)c5)cc4F)ncnc3cc2OC)CC1` (stereo not shown) [Example 220, 1-(4-((4-((2-fluoro-4-((2-(3-hydroxy-3-methylpiperidin-1-yl)pyridin-4-yl)oxy)phenyl)amino)-7-methoxyquinazolin-6-yl)amino)piperidin-1-yl)prop-2-en-1-one], the GI50 was 600 to 1000 nM in the assay on A431 cells; < 30 nM in assay [1]; < 30 nM in assay [2]; 100 to 300 nM with HCC827 cells; < 30 nM in assay [3].

As for `C=CC(=O)N1CCC(Nc2cc3c(Nc4ccc(Oc5ccnc(N6CCCCC6)c5)cc4F)ncnc3cc2OC)CC1` [Compound 100, 1-(4-((4-((2-fluoro-4-((2-(piperidin-1-yl)pyridin-4-yl)oxy)phenyl)amino)-7-methoxyquinazolin-6-yl)amino)piperidin-1-yl)prop-2-en-1-one], the concentration for 50% growth inhibition (GI50) in the assay with A431 cells was 300 to 600 nM; in assay [1] it was 100 to 300 nM; in assay [2], 100 to 300 nM; in the assay on HCC827 cells, 100 to 300 nM; in assay [3] it was 100 to 300 nM.

Consider `C=CC(=O)N1CCC(Nc2cc3c(Nc4ccc(Oc5ccnc(N6CCC(C)(OC)CC6)c5)cc4F)ncnc3cc2OC)CC1` [Example 129, 1-(4-((4-((2-fluoro-4-((2-(4-methoxy-4-methylpiperidin-1-yl)pyridin-4-yl)oxy)phenyl)amino)-7-methoxyquinazolin-6-yl)amino)piperidin-1-yl)prop-2-en-1-one], for which the GI50 with A431 cells was ≥ 1000 nM; in assay [1] it was 60 to 100 nM; in assay [2] it was 60 to 100 nM; in the assay with HCC827 cells, 300 to 600 nM; in assay [3], 30 to 60 nM.

Consider `C=CC(=O)N1CCC(Nc2cc3c(Nc4ccc(Oc5ccnc(-c6nc(C)sc6C)c5)cc4F)ncnc3cc2OC)CC1` [Example 177, 1-(4-((4-((4-((2-(2,5-dimethylthiazol-4-yl)pyridin-4-yl)oxy)-2-fluorophenyl)amino)-7-methoxyquinazolin-6-yl)amino)piperidin-1-yl)prop-2-en-1-one], for which the GI50 in the assay on A431 cells is 300 to 600 nM; in assay [1], < 30 nM; in assay [2], < 30 nM; in the assay on HCC827 cells it was 100 to 300 nM; in assay [3], < 30 nM.

The term GI50 denotes the concentration that inhibits growth by half. Lower therefore signals more potent growth inhibition.
